The text below walks through data of patent publication US20230148214A1, “INDAZOLES AND AZAINDAZOLES AS LRRK2 INHIBITORS” (ESCAPE Bio, Inc., priority 2020, published 2023).

pIC50: −log10 of the molar value. Bounds are passed on as bounds.

In one assay the target is T1, LRRK2 G2019S (Homo sapiens, UniProt Q5S007, G2019S).
T1 construct: purchased Life Technologies PV4881
Briefly: LRRK2 Kinase Activity Assay (LanthaScreen TR-FRET), G2019S. The assay is classed as biochemical. The conditions noted are these: recombinant G2019S-LRRK2, 25 μM ATP, 400 nM LRRKtide, 60 min; class symbols. The essentials:
(§1)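 Recombinant wild-type or G2019S LRRK2 incubated with fluorescein-labeled LRRKtide (ERM-based) peptide, ATP and serially diluted compound for 60 min at room temperature.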

Another assay concerns the target T2, LRRK2 WT (Homo sapiens, UniProt Q5S007).
T2 construct: purchased Life Technologies PR8604B
Nature of the assay: LRRK2 Kinase Activity Assay (LanthaScreen TR-FRET), wild type. The assay is classed as biochemical. The conditions noted are these: recombinant wild type LRRK2, 25 μM ATP, 400 nM LRRKtide, 60 min; class symbols. Summed up:
as §1
(Time-resolved FRET reads energy transfer from a long-lived donor to a nearby acceptor.)

T1 sequence (Q5S007 whole entry G2019S): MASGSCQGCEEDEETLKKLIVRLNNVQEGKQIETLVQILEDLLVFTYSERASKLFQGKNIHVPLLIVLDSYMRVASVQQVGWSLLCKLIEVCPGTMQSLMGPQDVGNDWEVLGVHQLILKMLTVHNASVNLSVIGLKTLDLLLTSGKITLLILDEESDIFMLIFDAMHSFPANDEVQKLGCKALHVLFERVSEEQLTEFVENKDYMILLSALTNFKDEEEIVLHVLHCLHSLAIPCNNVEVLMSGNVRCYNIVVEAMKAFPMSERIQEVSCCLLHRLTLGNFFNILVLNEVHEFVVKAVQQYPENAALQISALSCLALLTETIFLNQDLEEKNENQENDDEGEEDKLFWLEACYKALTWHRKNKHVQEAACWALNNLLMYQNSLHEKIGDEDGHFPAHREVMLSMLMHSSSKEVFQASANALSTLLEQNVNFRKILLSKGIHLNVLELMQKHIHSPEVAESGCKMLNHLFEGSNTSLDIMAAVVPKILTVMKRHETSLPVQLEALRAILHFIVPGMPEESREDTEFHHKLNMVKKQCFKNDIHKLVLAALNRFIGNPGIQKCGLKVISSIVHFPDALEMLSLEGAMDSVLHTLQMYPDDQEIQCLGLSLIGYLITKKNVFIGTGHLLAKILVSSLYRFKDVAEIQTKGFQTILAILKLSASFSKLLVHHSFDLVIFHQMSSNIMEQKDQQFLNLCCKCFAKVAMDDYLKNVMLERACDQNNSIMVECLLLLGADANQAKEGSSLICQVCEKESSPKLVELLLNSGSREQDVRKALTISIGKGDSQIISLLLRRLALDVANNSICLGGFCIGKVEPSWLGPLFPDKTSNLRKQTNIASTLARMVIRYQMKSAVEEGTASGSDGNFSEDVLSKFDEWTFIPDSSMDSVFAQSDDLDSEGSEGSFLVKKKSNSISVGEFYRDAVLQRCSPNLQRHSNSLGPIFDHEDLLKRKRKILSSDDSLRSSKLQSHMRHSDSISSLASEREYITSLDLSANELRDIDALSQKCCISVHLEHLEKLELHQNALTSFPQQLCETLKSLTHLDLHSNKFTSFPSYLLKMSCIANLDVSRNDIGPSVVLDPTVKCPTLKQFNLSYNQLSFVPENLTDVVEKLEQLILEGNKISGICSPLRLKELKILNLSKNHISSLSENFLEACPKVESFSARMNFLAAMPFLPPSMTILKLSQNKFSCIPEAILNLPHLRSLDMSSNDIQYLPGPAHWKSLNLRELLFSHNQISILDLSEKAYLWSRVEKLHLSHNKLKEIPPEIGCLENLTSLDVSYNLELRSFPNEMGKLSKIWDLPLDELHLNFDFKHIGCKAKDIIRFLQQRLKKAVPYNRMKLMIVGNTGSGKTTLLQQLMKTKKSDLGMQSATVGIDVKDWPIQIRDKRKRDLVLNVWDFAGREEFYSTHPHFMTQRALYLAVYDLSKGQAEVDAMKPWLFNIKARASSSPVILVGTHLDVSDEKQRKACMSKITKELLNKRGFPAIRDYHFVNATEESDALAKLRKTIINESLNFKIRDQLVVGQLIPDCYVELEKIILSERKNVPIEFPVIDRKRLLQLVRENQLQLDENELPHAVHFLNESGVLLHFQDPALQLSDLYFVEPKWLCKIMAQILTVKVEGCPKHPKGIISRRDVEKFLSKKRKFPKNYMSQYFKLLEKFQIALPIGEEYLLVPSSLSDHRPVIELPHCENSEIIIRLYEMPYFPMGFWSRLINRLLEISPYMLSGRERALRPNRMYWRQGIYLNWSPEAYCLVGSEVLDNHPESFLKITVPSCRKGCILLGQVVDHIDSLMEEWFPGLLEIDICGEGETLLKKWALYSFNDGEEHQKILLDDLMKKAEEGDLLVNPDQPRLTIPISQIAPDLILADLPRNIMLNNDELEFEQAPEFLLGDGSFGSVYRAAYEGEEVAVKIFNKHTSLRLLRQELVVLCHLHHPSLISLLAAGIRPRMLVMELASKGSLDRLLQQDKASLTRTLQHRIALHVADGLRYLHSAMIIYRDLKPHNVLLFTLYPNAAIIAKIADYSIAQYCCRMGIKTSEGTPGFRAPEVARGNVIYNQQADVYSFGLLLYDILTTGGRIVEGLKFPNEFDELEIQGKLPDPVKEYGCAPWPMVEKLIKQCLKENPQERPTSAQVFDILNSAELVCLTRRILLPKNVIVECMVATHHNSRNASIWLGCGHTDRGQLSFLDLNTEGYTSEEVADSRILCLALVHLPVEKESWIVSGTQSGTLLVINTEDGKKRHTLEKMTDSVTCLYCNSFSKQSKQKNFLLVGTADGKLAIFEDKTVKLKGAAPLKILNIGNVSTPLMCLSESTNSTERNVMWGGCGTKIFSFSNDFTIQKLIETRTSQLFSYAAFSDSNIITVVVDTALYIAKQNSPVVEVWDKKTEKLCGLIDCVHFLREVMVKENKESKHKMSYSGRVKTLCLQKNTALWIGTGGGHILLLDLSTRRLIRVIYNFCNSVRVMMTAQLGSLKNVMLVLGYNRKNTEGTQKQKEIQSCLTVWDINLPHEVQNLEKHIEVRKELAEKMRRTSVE
T2 sequence (Q5S007 whole entry): as the sequence (Q5S007 whole entry G2019S) above, with S2019G counted along it

By pIC50 is commonly meant the IC50 on a negative log10 scale, so that one unit is a factor of ten. For the molecule `C[C@H]1C[C@@H](Nc2ccc3[nH]nc(-c4cnco4)c3c2)c2ccc(C#N)cc21` (single isomer, unassigned) [Example 169, enantiomer 2, cis-3-Methyl-1-[[3-(1,3-oxazol-5-yl)-1H-indazol-5-yl]amino]-2,3-dihydro-1H-indene-5-carbonitrile], the pIC50 on LRRK2 G2019S was more than 7.00; on LRRK2 WT it was 6.00 to 7.00.

As to `Cc1nc2c(c(C)c1C#N)CC[C@@H]2Nc1ccc2[nH]nc(-c3cnco3)c2c1` (single isomer, unassigned) [Example 170, enantiomer 1, 2,4-Dimethyl-7-[[3-(1,3-oxazol-5-yl)-1H-indazol-5-yl]amino]-6,7-dihydro-5H-cyclopenta[b]pyridine-3-carbonitrile], the pIC50 on LRRK2 G2019S and at LRRK2 WT was more than 7.00 in each case.

Consider `Cc1nc2c(c(C)c1C#N)CC[C@@H]2Nc1ccc2[nH]nc(-c3cnco3)c2c1` (single isomer, unassigned) [Example 170, enantiomer 2, 2,4-Dimethyl-7-[[3-(1,3-oxazol-5-yl)-1H-indazol-5-yl]amino]-6,7-dihydro-5H-cyclopenta[b]pyridine-3-carbonitrile], for which the pIC50 on LRRK2 G2019S was more than 7.00; on LRRK2 WT, 6.00 to 7.00.

For `N#Cc1cc2c(nc1Cl)[C@@H](Oc1ccc3[nH]nc(-c4cnco4)c3c1)CC2` (single isomer, unassigned) [Example 171, enantiomer 1, 2-Chloro-7-[[3-(1,3-oxazol-5-yl)-1H-indazol-5-yl]oxy]-6,7-dihydro-5H-cyclopenta[b]pyridine-3-carbonitrile], the pIC50 on LRRK2 G2019S and on LRRK2 WT was more than 7.00 throughout.

Turning to `CC1(C)Cc2cc(C#N)cnc2[C@H]1Nc1ccc2[nH]nc(-c3cnco3)c2c1` (single isomer, unassigned) [Example 172, enantiomer 1, 6,6-Dimethyl-7-[[3-(1,3-oxazol-5-yl)-1H-indazol-5-yl]amino]-5,7-dihydrocyclopenta[b]pyridine-3-carbonitrile], the pIC50 on LRRK2 G2019S and on LRRK2 WT was 6.00 to 7.00 in each case.

In the case of `CC1(C)Cc2cc(C#N)cnc2[C@H]1Nc1ccc2[nH]nc(-c3cnco3)c2c1` (single isomer, unassigned) [Example 172, enantiomer 2, 6,6-Dimethyl-7-[[3-(1,3-oxazol-5-yl)-1H-indazol-5-yl]amino]-5,7-dihydrocyclopenta[b]pyridine-3-carbonitrile], the pIC50 at LRRK2 G2019S and at LRRK2 WT was more than 7.00 in each case.

On to `C[C@H]1CCc2cc(C#N)ccc2[C@H]1Nc1ccc2[nH]nc(-c3cnco3)c2c1` (single isomer, unassigned) [Example 173, enantiomer 1, cis-6-Methyl-5-((3-(oxazol-5-yl)-1H-indazol-5-yl)amino)-5,6,7,8-tetrahydronaphthalene-2-carbonitrile], for which the pIC50 at LRRK2 G2019S and on LRRK2 WT was more than 7.00 in each case.

Turning to `C[C@H]1CCc2cc(C#N)ccc2[C@H]1Nc1ccc2[nH]nc(-c3cnco3)c2c1` (single isomer, unassigned) [Example 173, enantiomer 2, cis-6-Methyl-5-((3-(oxazol-5-yl)-1H-indazol-5-yl)amino)-5,6,7,8-tetrahydronaphthalene-2-carbonitrile], the results for the pIC50 at LRRK2 G2019S and at LRRK2 WT were more than 7.00 and 6.00 to 7.00, respectively.

Take `C[C@@H]1CCc2cc(C#N)ccc2[C@H]1Nc1ccc2[nH]nc(-c3cnco3)c2c1` (single isomer, unassigned) [Example 174, enantiomer 1, trans-6-Methyl-5-((3-(oxazol-5-yl)-1H-indazol-5-yl)amino)-5,6,7,8-tetrahydronaphthalene-2-carbonitrile]: the pIC50 at LRRK2 G2019S and on LRRK2 WT was more than 7.00 in each case.

For `C[C@@H]1CCc2cc(C#N)ccc2[C@H]1Nc1ccc2[nH]nc(-c3cnco3)c2c1` (single isomer, unassigned) [Example 174, enantiomer 2, trans-6-Methyl-5-((3-(oxazol-5-yl)-1H-indazol-5-yl)amino)-5,6,7,8-tetrahydronaphthalene-2-carbonitrile], the values for the pIC50 at LRRK2 G2019S and on LRRK2 WT were more than 7.00 and 6.00 to 7.00, respectively.

As for `N#Cc1ccc2c(c1)CCC2Nc1ccc2[nH]nc(-c3ccoc3)c2c1` (stereo not shown) [Example 10, 1-((3-(Furan-3-yl)-1H-indazol-5-yl)amino)-2,3-dihydro-1H-indene-5-carbonitrile], the pIC50 at LRRK2 G2019S is more than 7.00; on LRRK2 WT, 6.00 to 7.00.

On to `N#Cc1ccc2c(c1)CC[C@@H]2Oc1ccc2[nH]nc(I)c2c1` [Example 13, 1-((3-Iodo-1H-indazol-5-yl)oxy)-2,3-dihydro-1H-indene-5-carbonitrile], for which the figures for the pIC50 at LRRK2 G2019S and at LRRK2 WT were more than 7.00 and 6.00 to 7.00, respectively.

In the case of `N#Cc1cnc2c(c1)CC(F)(F)C2Nc1ccc2[nH]nc(-c3cnco3)c2c1` (stereo not shown) [Example 34, 6,6-Difluoro-7-((3-(oxazol-5-yl)-1H-indazol-5-yl)amino)-6,7-dihydro-5H-cyclopenta[b]pyridine-3-carbonitrile], the values for the negative logarithm of the IC50 (pIC50) on LRRK2 G2019S and on LRRK2 WT were more than 7.00 and 6.00 to 7.00, respectively.

For the molecule `N#Cc1ccc2c(c1)CCC[C@@H]2Nc1ccc2[nH]nc(-c3ccc4ncsc4c3)c2c1` [Example 59, 5-((3-(Benzo[d]thiazol-6-yl)-1H-indazol-5-yl)amino)-5,6,7,8-tetrahydronaphthalene-2-carbonitrile], the pIC50 on LRRK2 G2019S and at LRRK2 WT was more than 7.00 in each case.
